Active and inactive are the calls of the source. No cut-off for these calls is given here.
Assays:
[1] = tested on: Tyrosine-protein kinase ABL1 (Homo sapiens), P00519 [Q252H]; assay: Binding affinity to human phosphorylated ABL1 Q252H mutant expressed in mammalian expression system assessed as residual binding level at 10 uM by Kinomescan method relative to control
[2] = target: Tyrosine-protein kinase receptor UFO (Homo sapiens) (UniProt P30530); assay: Binding affinity to wild-type human partial length AXL (R497 to Y821 residues) expressed in bacterial expression system assessed as residual binding level at 10 uM by Kinomescan method relative to control
[3] = target: Bone morphogenetic protein receptor type-1A (Homo sapiens) (UniProt P36894); assay: Binding affinity to wild-type human partial length BMPR1A (Q214 to I532 residues) expressed in bacterial expression system assessed as residual binding level at 10 uM by Kinomescan method relative to control
[4] = target: Calcium/calmodulin-dependent protein kinase type II subunit delta (Homo sapiens) (UniProt Q13557); assay: Binding affinity to wild-type human partial length CAMK2D (M1 to E329 residues) expressed in bacterial expression system assessed as residual binding level at 10 uM by Kinomescan method relative to control
[5] = target: Myotonin-protein kinase (Homo sapiens) (UniProt Q09013); assay: Binding affinity to wild-type human partial length DMPK (V47 to V415 residues) expressed in bacterial expression system assessed as residual binding level at 10 uM by Kinomescan method relative to control
[6] = target: Serine/threonine-protein kinase 17A (Homo sapiens) (UniProt Q9UEE5); assay: Binding affinity to wild-type human partial length DRAK1 (R32 to E363 residues) expressed in bacterial expression system assessed as residual binding level at 10 uM by Kinomescan method relative to control
[7] = target: Ephrin type-B receptor 1 (Homo sapiens) (UniProt P54762); assay: Binding affinity to wild-type human partial length EPHB1 (P589 to T911 residues) expressed in bacterial expression system assessed as residual binding level at 10 uM by Kinomescan method relative to control
[8] = target: Cyclin-G-associated kinase (Homo sapiens) (UniProt O14976); assay: Binding affinity to wild-type human partial length GAK (G13 to Y338 residues) expressed in bacterial expression system assessed as residual binding level at 10 uM by Kinomescan method relative to control
[9] = target: Inhibitor of nuclear factor kappa-B kinase subunit alpha (Homo sapiens) (UniProt O15111); assay: Binding affinity to wild-type human full length IKK-alpha (M1 to E745 residues) expressed in mammalian expression system assessed as residual binding level at 10 uM by Kinomescan method relative to control
[10] = target: Mitogen-activated protein kinase 8 (Homo sapiens) (UniProt P45983); assay: Binding affinity to wild-type human full length JNK1 (M1 to Q384 residues) expressed in mammalian expression system assessed as residual binding level at 10 uM by Kinomescan method relative to control
[11] = target: Serine/threonine-protein kinase LATS1 (Homo sapiens) (UniProt O95835); assay: Binding affinity to wild-type human partial length LATS1 (Q678 to V1130 residues) expressed in bacterial expression system assessed as residual binding level at 10 uM by Kinomescan method relative to control
[12] = target: Tyrosine-protein kinase Lck (Homo sapiens) (UniProt P06239); assay: Binding affinity to wild-type human partial length LCK (R207 to P509 residues) expressed in bacterial expression system assessed as residual binding level at 10 uM by Kinomescan method relative to control
[13] = target: Mitogen-activated protein kinase kinase kinase kinase 4 (Homo sapiens) (UniProt O95819); assay: Binding affinity to wild-type human partial length MAP4K4 (M1 to R310 residues) expressed in bacterial expression system assessed as residual binding level at 10 uM by Kinomescan method relative to control
[14] = target: MAP/microtubule affinity-regulating kinase 4 (Homo sapiens) (UniProt Q96L34); assay: Binding affinity to wild-type human partial length MARK4 (K29 to G340 residues) expressed in bacterial expression system assessed as residual binding level at 10 uM by Kinomescan method relative to control
[15] = target: Serine/threonine-protein kinase Nek3 (Homo sapiens) (UniProt P51956); assay: Binding affinity to wild-type human full length NEK3 (M1 to R506 residues) expressed in mammalian expression system assessed as residual binding level at 10 uM by Kinomescan method relative to control
[16] = target: Mitogen-activated protein kinase 12 (Homo sapiens) (UniProt P53778); assay: Binding affinity to wild-type human full length p38-gamma (M1 to L367 residues) expressed in mammalian expression system assessed as residual binding level at 10 uM by Kinomescan method relative to control
[17] = tested on: Phosphatidylinositol 4,5-bisphosphate 3-kinase catalytic subunit alpha isoform (Homo sapiens), P42336 [E545K]; assay: Binding affinity to human partial length PIK3CA E545K mutant (R108 to N1068 residues) expressed in mammalian expression system assessed as residual binding level at 10 uM by Kinomescan method relative to control
[18] = tested on: Proto-oncogene tyrosine-protein kinase receptor Ret (Homo sapiens), P07949 [V804L]; assay: Binding affinity to human partial length RET V804L mutant (E713 to D1014 residues) expressed in bacterial expression system assessed as residual binding level at 10 uM by Kinomescan method relative to control
[19] = target: Mitogen-activated protein kinase kinase kinase 7 (Homo sapiens) (UniProt O43318); assay: Binding affinity to wild-type human partial length TAK1 (M1 to Q303 residues) expressed in mammalian expression system assessed as residual binding level at 10 uM by Kinomescan method relative to control
[20] = target: Non-receptor tyrosine-protein kinase TYK2 (Homo sapiens) (UniProt P29597); assay: Binding affinity to wild-type human partial length TYK2 JH2 pseudokinase domain (G556 to D888 residues) expressed in mammalian expression system assessed as residual binding level at 10 uM by Kinomescan method relative to control
[21] = target: Serine/threonine-protein kinase ULK3 (Homo sapiens) (UniProt Q6PHR2); assay: Binding affinity to wild-type human partial length ULK3 (M1 to Q290 residues) expressed in mammalian expression system assessed as residual binding level at 10 uM by Kinomescan method relative to control
[22] = target: Serine/threonine-protein kinase VRK2 (Homo sapiens) (UniProt Q86Y07); assay: Binding affinity to wild-type human partial length VRK2 (M1 to T336 residues) expressed in mammalian expression system assessed as residual binding level at 10 uM by Kinomescan method relative to control
NIH3T3 [23] = assay: Inhibition of erastin-induced ferroptosis in mouse NIH/3T3 cells after 24 hrs by WST-8 assay; format: functional, cell-based; conditions: NIH3T3, 24 h
NIH3T3 [24] = assay: Inhibition of TBHP-induced ferroptosis in mouse NIH/3T3 cells after 12 hrs by WST-8 assay; format: functional, cell-based; conditions: NIH3T3, 12 h
Neutrophil = assay: Inhibition of PMA-induced superoxide production in C57BL6 mouse neutrophils at 10 uM preincubated for 30 mins followed by PMA stimulation and measured after 30 mins by luminol-lucignenin based luminescence assay; format: functional, cell-based

Chain of Proto-oncogene tyrosine-protein kinase receptor Ret (Homo sapiens), P07949 [V804L] (P07949 whole entry V804L, the tested form may be a part): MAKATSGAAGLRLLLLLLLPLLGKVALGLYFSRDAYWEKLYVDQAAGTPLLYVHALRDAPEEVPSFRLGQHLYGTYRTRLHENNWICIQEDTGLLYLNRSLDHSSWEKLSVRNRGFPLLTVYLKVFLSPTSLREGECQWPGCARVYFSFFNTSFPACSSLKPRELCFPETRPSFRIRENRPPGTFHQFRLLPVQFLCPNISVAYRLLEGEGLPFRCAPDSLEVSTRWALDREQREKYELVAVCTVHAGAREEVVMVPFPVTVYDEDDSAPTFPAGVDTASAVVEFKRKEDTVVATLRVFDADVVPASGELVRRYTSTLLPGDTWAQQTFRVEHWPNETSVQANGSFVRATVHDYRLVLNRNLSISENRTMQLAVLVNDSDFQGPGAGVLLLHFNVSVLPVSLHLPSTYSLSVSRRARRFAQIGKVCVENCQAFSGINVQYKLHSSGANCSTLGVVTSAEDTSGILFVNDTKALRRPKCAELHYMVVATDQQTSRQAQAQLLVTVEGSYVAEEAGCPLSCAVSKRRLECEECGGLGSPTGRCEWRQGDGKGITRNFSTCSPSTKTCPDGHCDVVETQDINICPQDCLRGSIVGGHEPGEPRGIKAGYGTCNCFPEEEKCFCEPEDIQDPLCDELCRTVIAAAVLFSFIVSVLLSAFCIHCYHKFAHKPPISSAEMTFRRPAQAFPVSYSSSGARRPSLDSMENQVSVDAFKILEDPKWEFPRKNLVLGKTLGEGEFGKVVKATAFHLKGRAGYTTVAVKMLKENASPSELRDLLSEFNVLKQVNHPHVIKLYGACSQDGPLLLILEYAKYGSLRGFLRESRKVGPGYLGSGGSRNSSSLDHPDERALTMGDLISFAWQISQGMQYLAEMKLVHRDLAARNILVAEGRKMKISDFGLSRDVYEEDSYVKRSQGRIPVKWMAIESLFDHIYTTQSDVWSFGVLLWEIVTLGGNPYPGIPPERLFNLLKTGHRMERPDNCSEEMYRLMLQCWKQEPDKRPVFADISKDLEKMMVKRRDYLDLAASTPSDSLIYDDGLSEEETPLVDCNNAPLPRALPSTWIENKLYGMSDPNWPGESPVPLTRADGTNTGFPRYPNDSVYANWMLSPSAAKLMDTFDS
Chain of Tyrosine-protein kinase receptor UFO (Homo sapiens) (P30530 whole entry, the tested form may be a part): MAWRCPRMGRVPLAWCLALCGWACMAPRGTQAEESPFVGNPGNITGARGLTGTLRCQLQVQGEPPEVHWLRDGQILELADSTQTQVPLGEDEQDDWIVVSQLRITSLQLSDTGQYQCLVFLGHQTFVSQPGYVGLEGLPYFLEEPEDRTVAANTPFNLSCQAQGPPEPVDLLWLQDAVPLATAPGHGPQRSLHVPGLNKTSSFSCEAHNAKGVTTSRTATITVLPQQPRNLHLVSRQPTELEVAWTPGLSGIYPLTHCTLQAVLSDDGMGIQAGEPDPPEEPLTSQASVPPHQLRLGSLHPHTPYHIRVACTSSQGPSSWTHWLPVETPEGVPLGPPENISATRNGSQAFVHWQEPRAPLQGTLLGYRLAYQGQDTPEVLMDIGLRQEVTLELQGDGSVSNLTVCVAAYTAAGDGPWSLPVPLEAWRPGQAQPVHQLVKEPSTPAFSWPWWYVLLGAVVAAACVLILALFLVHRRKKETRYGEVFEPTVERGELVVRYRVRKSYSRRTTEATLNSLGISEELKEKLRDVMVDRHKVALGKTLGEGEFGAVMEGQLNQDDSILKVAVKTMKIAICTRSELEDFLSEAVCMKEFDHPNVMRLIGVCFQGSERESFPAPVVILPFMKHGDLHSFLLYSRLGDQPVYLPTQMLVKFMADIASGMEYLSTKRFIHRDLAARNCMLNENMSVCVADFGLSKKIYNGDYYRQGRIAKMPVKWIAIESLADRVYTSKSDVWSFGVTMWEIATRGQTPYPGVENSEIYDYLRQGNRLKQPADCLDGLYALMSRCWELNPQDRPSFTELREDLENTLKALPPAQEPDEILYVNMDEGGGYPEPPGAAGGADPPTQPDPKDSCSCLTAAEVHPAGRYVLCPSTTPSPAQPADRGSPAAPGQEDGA
Chain of Serine/threonine-protein kinase Nek3 (Homo sapiens) (P51956 whole entry, the tested form may be a part): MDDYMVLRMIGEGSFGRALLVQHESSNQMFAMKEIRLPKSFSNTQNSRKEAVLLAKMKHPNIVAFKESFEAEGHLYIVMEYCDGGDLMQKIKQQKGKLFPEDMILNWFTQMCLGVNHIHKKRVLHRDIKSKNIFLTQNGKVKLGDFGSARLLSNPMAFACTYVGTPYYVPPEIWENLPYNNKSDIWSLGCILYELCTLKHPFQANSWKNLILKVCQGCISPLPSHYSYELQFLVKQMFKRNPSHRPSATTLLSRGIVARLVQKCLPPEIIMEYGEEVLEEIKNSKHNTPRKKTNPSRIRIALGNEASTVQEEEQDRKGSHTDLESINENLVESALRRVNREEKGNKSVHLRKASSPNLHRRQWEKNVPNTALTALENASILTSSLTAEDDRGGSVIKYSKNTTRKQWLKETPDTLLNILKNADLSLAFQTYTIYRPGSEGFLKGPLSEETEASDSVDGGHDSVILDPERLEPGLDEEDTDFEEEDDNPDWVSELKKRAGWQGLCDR
Chain of Mitogen-activated protein kinase kinase kinase 7 (Homo sapiens) (O43318 whole entry, the tested form may be a part): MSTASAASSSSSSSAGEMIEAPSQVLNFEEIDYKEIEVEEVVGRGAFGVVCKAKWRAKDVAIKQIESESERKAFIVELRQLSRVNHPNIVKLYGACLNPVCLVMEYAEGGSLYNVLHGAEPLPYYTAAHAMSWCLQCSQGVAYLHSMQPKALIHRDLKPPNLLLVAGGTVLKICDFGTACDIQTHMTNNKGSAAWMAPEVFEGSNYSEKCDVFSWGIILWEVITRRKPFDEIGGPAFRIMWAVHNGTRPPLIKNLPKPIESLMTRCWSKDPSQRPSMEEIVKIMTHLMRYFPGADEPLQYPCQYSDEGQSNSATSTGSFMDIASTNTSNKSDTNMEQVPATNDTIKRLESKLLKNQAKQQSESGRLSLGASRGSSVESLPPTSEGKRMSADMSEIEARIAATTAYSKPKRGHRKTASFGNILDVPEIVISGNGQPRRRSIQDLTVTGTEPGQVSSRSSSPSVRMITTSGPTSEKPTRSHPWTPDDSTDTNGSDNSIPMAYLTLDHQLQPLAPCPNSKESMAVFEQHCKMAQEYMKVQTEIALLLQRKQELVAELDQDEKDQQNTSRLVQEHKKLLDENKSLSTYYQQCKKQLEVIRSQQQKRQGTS
Chain of Serine/threonine-protein kinase 17A (Homo sapiens) (Q9UEE5 whole entry, the tested form may be a part): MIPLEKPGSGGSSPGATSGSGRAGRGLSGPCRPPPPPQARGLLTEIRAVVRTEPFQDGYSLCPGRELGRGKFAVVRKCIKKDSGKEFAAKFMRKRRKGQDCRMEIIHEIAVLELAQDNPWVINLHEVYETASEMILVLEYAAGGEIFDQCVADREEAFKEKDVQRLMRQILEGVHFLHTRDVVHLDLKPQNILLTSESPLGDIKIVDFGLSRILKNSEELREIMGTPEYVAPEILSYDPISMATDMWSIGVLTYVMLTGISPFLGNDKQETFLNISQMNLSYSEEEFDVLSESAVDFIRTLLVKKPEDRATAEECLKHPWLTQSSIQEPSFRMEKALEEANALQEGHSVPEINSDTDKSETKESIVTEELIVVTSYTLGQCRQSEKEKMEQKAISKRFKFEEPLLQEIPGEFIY
Chain of Myotonin-protein kinase (Homo sapiens) (Q09013 whole entry, the tested form may be a part): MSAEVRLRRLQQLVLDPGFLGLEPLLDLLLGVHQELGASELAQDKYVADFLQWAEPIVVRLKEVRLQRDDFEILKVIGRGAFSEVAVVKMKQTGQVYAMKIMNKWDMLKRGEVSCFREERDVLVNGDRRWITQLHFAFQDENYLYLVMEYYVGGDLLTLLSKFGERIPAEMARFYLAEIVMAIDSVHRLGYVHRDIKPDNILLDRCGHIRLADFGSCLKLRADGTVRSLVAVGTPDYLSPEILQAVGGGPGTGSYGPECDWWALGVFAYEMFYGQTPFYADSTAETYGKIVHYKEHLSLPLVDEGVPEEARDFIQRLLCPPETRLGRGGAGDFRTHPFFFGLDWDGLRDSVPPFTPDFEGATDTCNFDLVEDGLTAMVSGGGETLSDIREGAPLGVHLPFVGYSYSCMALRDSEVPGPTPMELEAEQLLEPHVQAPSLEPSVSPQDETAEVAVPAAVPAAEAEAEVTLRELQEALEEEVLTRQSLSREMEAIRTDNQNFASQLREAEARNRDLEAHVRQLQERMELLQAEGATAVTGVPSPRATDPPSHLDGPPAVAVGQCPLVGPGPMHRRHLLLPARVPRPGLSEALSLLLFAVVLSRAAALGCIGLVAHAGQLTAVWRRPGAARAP
Chain of Mitogen-activated protein kinase 12 (Homo sapiens) (P53778 whole entry, the tested form may be a part, canonical isoform): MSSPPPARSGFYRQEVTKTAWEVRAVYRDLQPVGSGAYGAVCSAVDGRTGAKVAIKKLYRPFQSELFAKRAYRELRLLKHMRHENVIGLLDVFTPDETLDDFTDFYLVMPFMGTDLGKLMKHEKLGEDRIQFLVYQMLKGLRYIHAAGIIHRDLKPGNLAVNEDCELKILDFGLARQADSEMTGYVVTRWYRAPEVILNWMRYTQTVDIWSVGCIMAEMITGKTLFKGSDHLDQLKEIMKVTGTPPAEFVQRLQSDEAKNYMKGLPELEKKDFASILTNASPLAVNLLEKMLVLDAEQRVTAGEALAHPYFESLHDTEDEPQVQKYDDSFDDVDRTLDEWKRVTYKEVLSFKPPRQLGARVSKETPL
Chain of Serine/threonine-protein kinase ULK3 (Homo sapiens) (Q6PHR2 whole entry, the tested form may be a part): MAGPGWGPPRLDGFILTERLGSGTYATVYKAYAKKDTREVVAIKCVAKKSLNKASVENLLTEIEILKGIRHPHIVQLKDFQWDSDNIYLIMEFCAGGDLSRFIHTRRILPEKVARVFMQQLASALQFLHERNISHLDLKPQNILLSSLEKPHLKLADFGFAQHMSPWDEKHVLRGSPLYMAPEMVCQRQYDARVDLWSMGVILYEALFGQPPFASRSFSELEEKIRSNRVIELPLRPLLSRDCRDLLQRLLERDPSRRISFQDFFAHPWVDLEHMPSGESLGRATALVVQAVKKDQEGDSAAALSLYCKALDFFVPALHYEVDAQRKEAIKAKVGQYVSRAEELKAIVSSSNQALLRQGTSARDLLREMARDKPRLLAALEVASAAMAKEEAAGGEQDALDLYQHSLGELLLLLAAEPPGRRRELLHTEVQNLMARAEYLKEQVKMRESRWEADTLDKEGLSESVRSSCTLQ

**Q.** Which Activity [1] does the source give for CC(C)N1C(=O)C(NCCCN(C)C)=C(c2cn(C)c3ccccc23)C1=O.Cl here?
**A.** Its Activity is 84%.

**Q.** What about the Activity [2] of the same compound?
**A.** The Activity was 99%.

**Q.** What about the Activity [3] of the same compound?
**A.** The Activity was 100%.

**Q.** And the Activity [4]?
**A.** Its Activity is 98%.

**Q.** What about the Activity [5] of the same compound?
**A.** Its Activity is 100%.

**Q.** And the Activity [6]?
**A.** The Activity was 97%.

**Q.** What about the Activity [7] of the same compound?
**A.** Its Activity is 99%.

**Q.** And the Activity [8]?
**A.** The Activity was 94%.

**Q.** What about the Activity [9] of the same compound?
**A.** Its Activity is 81%.

**Q.** What about the Activity [10] of the same compound?
**A.** The Activity was 91%.

**Q.** And the Activity [11]?
**A.** The Activity was 96%.

**Q.** What about the Activity [12] of the same compound?
**A.** Its Activity is 92%.

**Q.** What about the Activity [13] of the same compound?
**A.** Its Activity is 95%.

**Q.** And the Activity [14]?
**A.** Its Activity is 64%.

**Q.** What about the Activity [15] of the same compound?
**A.** The Activity was 94%.

**Q.** And the Activity [16]?
**A.** The Activity was 72%.

**Q.** What about the Activity [17] of the same compound?
**A.** The Activity was 93%.

**Q.** What about the Activity [18] of the same compound?
**A.** Its Activity is 90%.

**Q.** And the Activity [19]?
**A.** The Activity was 78%.

**Q.** What about the Activity [20] of the same compound?
**A.** Its Activity is 88%.

**Q.** And the Activity [21]?
**A.** The Activity was 79%.

**Q.** What about the Activity [22] of the same compound?
**A.** Its Activity is 95%.

**Q.** What about the IC50 (NIH3T3 [23]) of the same compound?
**A.** Its IC50 is 1.9 µM.

**Q.** What about the IC50 (NIH3T3 [24]) of the same compound?
**A.** Its IC50 is 1.8 µM.

**Q.** What about the inhibition (Neutrophil) of the same compound?
**A.** The inhibition was “inactive”.
